Measurements as given in patent publication US9957264B2 (Merck Sharp & Dohme Corp., priority 2013, dated 2018).

What was measured:
[1] = target: JAK1 (recombinant purified GST-tagged catalytic domain) (Homo sapiens (Human), UniProt P23458); assay: Jak Biochemical HTRF Assay (JAK1); settings: [ATP] 31.8 μM
Method in brief: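 Under a 120 min room-temperature, ATP-initiated reaction, peptide phosphorylation was detected by Eu-pY20/streptavidin-Dylight 650 HTRF after EDTA stop. IC50 values derive from percent inhibition curves.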

[2] = target: JAK2 (recombinant purified GST-tagged catalytic domain) (Homo sapiens (Human), UniProt O60674); assay: Jak Biochemical HTRF Assay (JAK2); settings: [ATP] 8.5 μM
Sequence of JAK2 (recombinant purified GST-tagged catalytic domain) (O60674 849-1124): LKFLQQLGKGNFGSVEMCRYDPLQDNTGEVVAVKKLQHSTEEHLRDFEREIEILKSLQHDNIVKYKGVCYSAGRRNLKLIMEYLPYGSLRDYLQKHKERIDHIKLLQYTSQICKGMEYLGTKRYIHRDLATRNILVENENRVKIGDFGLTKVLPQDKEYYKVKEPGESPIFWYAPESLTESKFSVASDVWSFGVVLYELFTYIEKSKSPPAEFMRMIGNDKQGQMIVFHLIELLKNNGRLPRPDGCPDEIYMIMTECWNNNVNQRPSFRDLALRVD

Sequence of JAK1 (recombinant purified GST-tagged catalytic domain) (P23458 875-1153): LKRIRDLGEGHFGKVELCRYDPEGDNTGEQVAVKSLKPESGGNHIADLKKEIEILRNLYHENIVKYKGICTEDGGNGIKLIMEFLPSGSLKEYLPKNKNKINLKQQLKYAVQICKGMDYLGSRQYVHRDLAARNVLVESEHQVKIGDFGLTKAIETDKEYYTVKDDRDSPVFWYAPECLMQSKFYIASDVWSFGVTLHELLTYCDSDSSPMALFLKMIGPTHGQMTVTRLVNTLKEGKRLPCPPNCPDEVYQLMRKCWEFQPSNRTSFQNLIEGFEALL

Compound	IC50 [1] [nM]	IC50 [2] [nM]
COC1CN([C@H]2CC[C@@](CC#N)(n3nc(Nc4ccc(Cl)c(F)c4)c4c(=O)[nH]ccc43)CC2)C1 [Example 18-23, Cis 2-(1-(3-((4-chloro-3-fluorophenyl)amino)-4-oxo-4,5-dihydro-1H-pyrazolo[4,3-c]pyridin-1-yl)-4-(3-methoxyazetidin-1-yl)cyclohexyl)acetonitrile]	125	> 1500
N#CCC1(n2nc(Nc3ccc(Cl)cc3)c3c(=O)[nH]ccc32)CCC(O)CC1 (stereo not drawn) [Example 18-12, Cis and trans 2-(1-(3-((4-chlorophenyl)amino)-4-oxo-4,5-dihydro-1H-pyrazolo[4,3-c]pyridin-1-yl)-4-hydroxycyclohexyl)acetonitrile]	5.41	38.5
N#CC[C@]1(n2nc(Nc3ccc(Cl)cc3)c3c(=O)[nH]ccc32)CC[C@@H](N2CC(F)C2)CC1 [Example 18-7, Cis 2-(1-(3-((4-chlorophenyl)amino)-4-oxo-4,5-dihydro-1H-pyrazolo[4,3-c]pyridin-1-yl)-4-(3-fluoroazetidin-1-yl)cyclohexyl)acetonitrile]	2.98	19.8
CSC(C)C(=O)N1CCC(CC#N)(n2nc(Nc3ccc(S(=O)(=O)N(C)C)cc3)c3c(=O)[nH]ccc32)CC1 (stereo not drawn) [Example 9-24, 4-((1-(4-(cyanomethyl)-1-(2-(methylthio)propanoyl)piperidin-4-yl)-4-oxo-4,5-dihydro-1H-pyrazolo[4,3-c]pyridin-3-yl)amino)-N,N-dimethylbenzenesulfonamide]	0.14	0.36

The remaining lines, values ahead:

IC50 [1] [nM]	IC50 [2] [nM]	Compound
0.63	0.58	CC(C)(C)OC(=O)N1CCC(CC#N)(n2nc(Nc3ccc([C@@]4(C(F)(F)F)CCCCN4)cc3)c3c(=O)[nH]ccc32)CC1 (single isomer, unassigned) [Example 21-17, (R or S)-tert-butyl 4-(cyanomethyl)-4-(4-oxo-3-(4-(2-(trifluoromethyl)piperidin-2-yl)phenylamino)-4,5-dihydropyrazolo[4,3-c]pyridin-1-yl)piperidine-1-carboxylate]
0.33	0.41	CN(C(C)(C)C)S(=O)(=O)c1ccc(Nc2nn([C@]3(CC#N)CC[C@@H](C(=O)OC(C)(C)C)OC3)c3cc[nH]c(=O)c23)cc1 [Example 5-90, (2S,5S)-tert-butyl 5-(3-((4-(N-(tert-butyl)-N-methylsulfamoyl)phenyl)amino)-4-oxo-4,5-dihydro-1H-pyrazolo[4,3-c]pyridin-1-yl)-5-(cyanomethyl)tetrahydro-2H-pyran-2-carboxylate]
2.76	12.9	CC(C)OC(=O)C(C)(C)C(O)(c1ccc(Nc2nn([C@]3(CC#N)CC[C@@H](C(=O)OC(C)(C)C)OC3)c3cc[nH]c(=O)c23)cc1)C(F)(F)F (single isomer, unassigned) [Example 5-162, (2S,5S)-tert-butyl 5-(cyanomethyl)-5-(4-oxo-3-((4-((S or R)-1,1,1-trifluoro-2-hydroxy-4-isopropoxy-3,3-dimethyl-4-oxobutan-2-yl)phenyl)amino)-4,5-dihydro-1H-pyrazolo[4,3-c]pyridin-1-yl)tetrahydro-2H-pyran-2-carboxylate]
2.62	23.4	N#CC[C@@]1(n2nc(Nc3ccc(Cl)cc3)c3c(=O)[nH]ccc32)CCOC1 (single isomer, unassigned) [Example 5-241, [(3R or 3S)-3-{3-[(4-chlorophenyl)amino]-4-oxo-4,5-dihydro-1H-pyrazolo[4,3-c]pyridin-1-yl}tetrahydrofuran-3-yl]acetonitrile]
0.33	0.99	Cc1cc(Nc2nn([C@]3(CC#N)CCCOC3)c3cc[nH]c(=O)c23)ccc1C(=O)N1CC[C@@H](F)C1 [Example 5-115, 2-((S)-3-(3-((4-((R)-3-fluoropyrrolidine-1-carbonyl)-3-methylphenyl)amino)-4-oxo-4,5-dihydro-1H-pyrazolo[4,3-c]pyridin-1-yl)tetrahydro-2H-pyran-3-yl)acetonitrile]
